According to paper PMC10148158, “Mechanism and linkage specificities of the dual retaining β-Kdo glycosyltransferase modules of KpsC from bacterial capsule biosynthesis” (The Journal of Biological Chemistry, 2023):

Target: T1, KpsC-NEc (E. coli KpsC^2-323) (Escherichia coli, UniProt A0A0H2Z2W8)
T1 construct: N-terminal GT module, residues 2-323, His6-tag kept, expressed in E. coli BL21(DE3)
Test: LC-MS of intact protein
Format: biochemical
Details: covalent; Kdo on Asp160; CMP-Kdo made in situ by KdsB; no acceptor

T1 sequence (A0A0H2Z2W8 entry or part of it): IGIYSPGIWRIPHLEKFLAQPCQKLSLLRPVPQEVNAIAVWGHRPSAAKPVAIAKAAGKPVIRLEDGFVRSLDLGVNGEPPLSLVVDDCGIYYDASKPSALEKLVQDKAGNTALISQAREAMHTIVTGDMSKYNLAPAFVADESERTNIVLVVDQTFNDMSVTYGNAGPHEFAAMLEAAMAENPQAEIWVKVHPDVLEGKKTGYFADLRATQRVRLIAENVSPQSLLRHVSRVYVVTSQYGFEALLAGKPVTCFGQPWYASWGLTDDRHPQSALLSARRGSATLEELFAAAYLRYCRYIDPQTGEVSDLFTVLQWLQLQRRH

Q: With `Nc1ccn([C@@H]2O[C@H](COP(=O)(O)O[C@@]3(C(=O)O)C[C@@H](O)[C@@H](O)[C@@H]([C@H](O)CO)O3)[C@@H](O)[C@H]2O)c(=O)n1` [CMP-Kdo] as the molecule, how does the “Kdo adduct mass increase” value read?
A: The native KpsC-NEc enzyme therefore appears capable of forming covalent Kdo adducts in vitro.
